The subject of the assay is Plasmodium berghei. The assay is described as follows: Luciferase/luciferin-expressing antifolate-resistant parasites were used to infect a culture of HepG2 cells that were pre-incubated with compounds. Infected hepatocytes emit light due to the luciferase reaction. Assay results are presented as the percent inhibition of light emission compared to control. […]. Particulars: sporozoite; for IC90: read-out: LUCIFERASE INFECTION ASSAY - IC90. It is filed as functional.

[1] abbreviates: read-out: LUCIFERASE INFECTION ASSAY - IC50.

Structures are written as SMILES. A value given as a limit tells only on which side of the number the result lay.

By IC50 is commonly meant the concentration needed to halve the response being measured. What is called IC90 is the concentration needed for an effect of 90%. As for `CN(C)c1cccc(-c2ccc3nnc(-c4ccc5c(c4)OCO5)n3c2)c1`, the IC90 stood at 5.11 µM. The IC50 (HEPG2TOX_HILL_SLOPE 1.77, HEPG2TOX_R_SQUARED 0.976, PBLUC_HILL_SLOPE 2.39, PBLUC_R_SQUARED 0.666, read-out: LUCIFERASE INFECTION ASSAY - IC50) was determined as 2.04 µM.

As for `CNC(=S)Nc1ccc(-n2cnc3ccccc32)cc1`, the IC90 is above 10 µM. Also, the IC50 under setting [1] is above 10 µM.

`COc1cc(/C=C/C(=O)c2ccc3[nH]c(=O)[nH]c3c2)cc(Cl)c1OC(F)F`: the IC90 is above 10 µM. Further, the IC50 (PBLUC_HILL_SLOPE 1.43, PBLUC_R_SQUARED 0.612, read-out: LUCIFERASE INFECTION ASSAY - IC50) was determined as 6.07 µM.

Regarding `CCOc1ccc(NS(=O)(=O)c2ccc(NC(=O)c3ccc(OC)c(S(=O)(=O)N4CCCCC4C)c3)cc2)cc1` (centres undefined), the IC90 is above 10 µM. For the same molecule, the IC50 (PBLUC_HILL_SLOPE 11.8, PBLUC_R_SQUARED 0.201, read-out: LUCIFERASE INFECTION ASSAY - IC50) stood at 9.44 µM.

Regarding `c1ccc(Sc2ncnc3sccc23)nc1`, the IC90 was 6.79 µM. In addition, where the note is “PBLUC_HILL_SLOPE 117, PBLUC_R_SQUARED 0.0329, read-out: LUCIFERASE INFECTION ASSAY - IC50”, the IC50 was 6.66 µM.

For `Cc1[nH]c2c(F)cc(F)cc2c(=O)c1I`, the IC90 came to 9.47 µM. Where the note is “PBLUC_HILL_SLOPE 4.58, PBLUC_R_SQUARED 0.0894, read-out: LUCIFERASE INFECTION ASSAY - IC50”, the IC50 was 5.86 µM.

Regarding `Oc1cc2[nH]c3ccccc3c2cc1CN1CCN(Cc2ccccc2)CC1`, the IC90 is above 10 µM. Besides, the IC50 (PBLUC_HILL_SLOPE 3.66, PBLUC_R_SQUARED 0.154, read-out: LUCIFERASE INFECTION ASSAY - IC50) was 6.03 µM.

With `CCN1C(=O)N(CCN(C)C)C(=O)C12CCN(Cc1ccc3c(c1)c1ccccc1n3CC)CC2`, the IC90 is 6.84 µM. The IC50 (PBLUC_HILL_SLOPE 12.4, PBLUC_R_SQUARED 0.445, read-out: LUCIFERASE INFECTION ASSAY - IC50) came to 5.73 µM.

Consider `CSc1ccc(-c2nccc3n[nH]c(C4CC4)c23)cc1`, for which the IC90 was above 10 µM. For the same molecule, the IC50 (PBLUC_HILL_SLOPE 3.07, PBLUC_R_SQUARED 0.601, read-out: LUCIFERASE INFECTION ASSAY - IC50) turned out to be 5.61 µM.

Take `O=C(c1c[nH]c(-c2ccnc(N3CCCC3)c2)c1)c1ccccc1O`: the IC90 came to 7.71 µM. For the setting “HEPG2TOX_HILL_SLOPE 2.58, 1.58, HEPG2TOX_R_SQUARED 0.907, 0.987, PBLUC_HILL_SLOPE 3.48, 1.53, PBLUC_R_SQUARED 0.289, 0.786, read-out: LUCIFERASE INFECTION ASSAY - IC50”, the IC50 was found to be 3.06 µM.

Take `CCOC(=O)c1c(C)[nH]c(C(=O)COC(=O)c2ccc(CO)cc2)c1C`: the IC90 was above 10 µM. Moreover, the IC50 under setting [1] was above 10 µM.

`CC1CC(C)CN(Cc2ccccc2CNC(=O)Nc2nnc(C3CC3)s2)C1` (centres undefined): the IC90 is above 10 µM. The IC50 (HEPG2TOX_HILL_SLOPE 1.87, HEPG2TOX_R_SQUARED 0.778, PBLUC_HILL_SLOPE 3.71, PBLUC_R_SQUARED 0.683, read-out: LUCIFERASE INFECTION ASSAY - IC50) stood at 6.46 µM.

As to `CCc1cc[n+](CC(=O)Nc2cc3oc4ccccc4c3cc2OC)cc1`, the IC90 amounted to 9.36 µM. The IC50 (HEPG2TOX_HILL_SLOPE 8.94, HEPG2TOX_R_SQUARED 0.562, PBLUC_HILL_SLOPE 18.1, PBLUC_R_SQUARED 0.422, read-out: LUCIFERASE INFECTION ASSAY - IC50) came out at 8.29 µM.

`Cc1cc2nc(NC3=NCN(Cc4cccnc4)CN3)nc(C)c2cc1C`: the IC90 was above 9.13 µM. Besides, under setting [1], the IC50 is above 9.13 µM.

Regarding `CCOC(=O)c1[nH]c(C)c(C(=O)CN(C)S(=O)(=O)c2c(C)noc2C)c1C`, the IC90 was determined as 3.73 µM. Under “PBLUC_HILL_SLOPE 16.9, PBLUC_R_SQUARED 0.509, read-out: LUCIFERASE INFECTION ASSAY - IC50”, the IC50 came to 3.28 µM.

As for `CCOc1ccccc1/C=C/C(=O)OCC(=O)Nc1ccccc1-c1ccccc1`, the IC90 came to 3.67 µM. Moreover, the IC50 (HEPG2TOX_HILL_SLOPE 2.07, HEPG2TOX_R_SQUARED 0.949, PBLUC_HILL_SLOPE 25.6, PBLUC_R_SQUARED 0.535, read-out: LUCIFERASE INFECTION ASSAY - IC50) is 3.37 µM.

Turning to `CCc1c(C(=O)/C=C/c2cc(OC)c(O)c(OC)c2)oc2ccc(C)cc12`, the IC90 was determined as 7.96 µM. Further, for the setting “PBLUC_HILL_SLOPE 25.7, 54.1, PBLUC_R_SQUARED 0.301, 0.609, read-out: LUCIFERASE INFECTION ASSAY - IC50”, the IC50 is 7.44 µM.

For `COc1cc(CNC(=O)c2scnc2C)ccc1OC1CCCC1`, the IC90 is above 10 µM. Further, the IC50 under setting [1] came to 2.89 µM.

As for `O=C(Nc1ccccc1SCc1ccsc1)C1CCCCC1`, the IC90 was above 10 µM. Moreover, the IC50 under setting [1] is above 10 µM.

As for `Cc1cc(C)n2ncc(C(=O)Nc3cccc(/C=C/c4ccccn4)c3)c2n1`, the IC90 was found to be 8.17 µM. For the same molecule, the IC50 (PBLUC_HILL_SLOPE 1.28, PBLUC_R_SQUARED 0.742, read-out: LUCIFERASE INFECTION ASSAY - IC50) was 1.46 µM.

Turning to `O=C(c1cc(-c2ccccc2)[nH]n1)N1CCN(S(=O)(=O)c2ccccc2)CC1`, the IC90 is above 10 µM. The IC50 (PBLUC_HILL_SLOPE 0.361, PBLUC_R_SQUARED 0.34, read-out: LUCIFERASE INFECTION ASSAY - IC50) is 1.07 µM.

With `Cc1nn2c3ccccc3n(C)c2c1C(=O)N/N=C/c1ccc([N+](=O)[O-])o1`, the IC90 was above 10 µM. Also, the IC50 (PBLUC_HILL_SLOPE 2.48, PBLUC_R_SQUARED 0.513, read-out: LUCIFERASE INFECTION ASSAY - IC50) was determined as 5.52 µM.

In the case of `CO/N=C(/CS(=O)(=O)c1ccc(Cl)cc1)c1ccc(Cl)cc1`, the IC90 came out at 3.25 µM. Further, for the setting “HEPG2TOX_HILL_SLOPE 1.88, HEPG2TOX_R_SQUARED 0.932, PBLUC_HILL_SLOPE 2.15, PBLUC_R_SQUARED 0.742, read-out: LUCIFERASE INFECTION ASSAY - IC50”, the IC50 came to 1.17 µM.

With `O=C(Nn1cnc2ccccc21)c1ccccc1Nc1ccc(SC(F)F)cc1`, the IC90 was above 10 µM. Further, the IC50 (PBLUC_HILL_SLOPE 11.6, PBLUC_R_SQUARED 0.0782, read-out: LUCIFERASE INFECTION ASSAY - IC50) turned out to be 8.68 µM.

As for `O=C(Nc1cccc(C(F)(F)F)c1)n1cc(-c2ccccn2)c(N2CCOCC2)n1`, the IC90 was above 7.91 µM. Besides, the IC50 (PBLUC_HILL_SLOPE 5.81, PBLUC_R_SQUARED 0.476, read-out: LUCIFERASE INFECTION ASSAY - IC50) worked out at 5.62 µM.

For the molecule `O=C(Nc1ccccc1)Nc1ccccc1Sc1nccc(C(F)(F)F)n1`, the concentration for an effect of 90% (IC90) was 8.05 µM. Where the note is “PBLUC_HILL_SLOPE 1.34, PBLUC_R_SQUARED 0.717, read-out: LUCIFERASE INFECTION ASSAY - IC50”, the IC50 was determined as 1.57 µM.

For `CC(C)CCN1C(=O)N(C(C)C)C(=O)C12CCN(Cc1c[nH]c3ccccc13)CC2`, the IC90 is above 8.04 µM. In addition, where the note is “HEPG2TOX_HILL_SLOPE 1.06, HEPG2TOX_R_SQUARED 0.491, PBLUC_HILL_SLOPE 3.87, PBLUC_R_SQUARED 0.243, read-out: LUCIFERASE INFECTION ASSAY - IC50”, the IC50 is above 8.04 µM.

Turning to `CCN1CCN(c2cc(C(C)(C)C)nc3c(-c4ccccc4)cnn23)CC1`, the IC90 is above 9.08 µM. Also, where the note is “PBLUC_HILL_SLOPE 3.68, PBLUC_R_SQUARED 0.383, read-out: LUCIFERASE INFECTION ASSAY - IC50”, the IC50 stood at 6.05 µM.

`Cc1cc(C(=O)COn2nnc3ccc(S(=O)(=O)N4CCOCC4)cc32)c(C)n1C`: the IC90 was above 10 µM. For the same molecule, the IC50 under setting [1] was above 10 µM.

Regarding `Nc1cccc2c1C(=O)N(C(=O)/C=C/c1cccc(F)c1)C2=O`, the IC90 is above 10 µM. Under “HEPG2TOX_HILL_SLOPE 0.728, HEPG2TOX_R_SQUARED 0.696, PBLUC_HILL_SLOPE 1.8, PBLUC_R_SQUARED 0.344, read-out: LUCIFERASE INFECTION ASSAY - IC50”, the IC50 was determined as 8.07 µM.

Turning to `Cc1ccc(N(CCC#N)C(=O)COC(=O)c2c3c(nc4ccccc24)/C(=C/c2c(F)cccc2Cl)CC3)cc1`, the IC90 was above 10 µM. The IC50 under setting [1] was above 10 µM.

Turning to `CC1CCN(C(=O)c2csc(-c3ccco3)n2)c2ccccc2S1` (centres undefined), the IC90 amounted to 7.59 µM. In addition, the IC50 (PBLUC_HILL_SLOPE 1.74, PBLUC_R_SQUARED 0.579, read-out: LUCIFERASE INFECTION ASSAY - IC50) came out at 2.14 µM.

Take `CC(C(=O)Nc1cc([N+](=O)[O-])ccc1Cl)N(C)CC(=O)Nc1ccc(Cl)c(C(F)(F)F)c1` (centres undefined): the concentration for an effect of 90% (IC90) is above 10 µM. Moreover, the IC50 (HEPG2TOX_HILL_SLOPE 0.377, HEPG2TOX_R_SQUARED 0.303, read-out: LUCIFERASE INFECTION ASSAY - IC50) was above 10 µM.

Take `Cc1ccc(C(=O)NCc2ccc(-c3ccc(Cl)cc3)o2)cc1NC(=O)c1ccco1`: the 90% effect concentration (IC90) is above 10 µM. Also, the IC50 under setting [1] was above 10 µM.

For `Cc1nc(C(=O)N2CCc3c(c(C(=O)NCc4ccccn4)nn3CCc3ccccc3)C2)cs1`, the IC90 came to 2.47 µM. For the same molecule, the IC50 (PBLUC_HILL_SLOPE 26.7, PBLUC_R_SQUARED 0.676, read-out: LUCIFERASE INFECTION ASSAY - IC50) was determined as 2.27 µM.

With `Cc1ccc(S(=O)(=O)N2CCN(C(=O)/C=C/c3ccsc3)CC2)cc1`, the IC90 is above 10 µM. Also, the half-maximal inhibitory concentration (IC50) (FFLUC_HILL_SLOPE 16.5, FFLUC_R_SQUARED 0.182, read-out: LUCIFERASE INFECTION ASSAY - IC50) is above 10 µM.

On to `Cc1ccc(/C(C#N)=C/c2ccc(N(C)C)cc2)cc1`, for which the concentration for an effect of 90% (IC90) was 5.07 µM. The IC50 (HEPG2TOX_HILL_SLOPE 1.36, HEPG2TOX_R_SQUARED 0.894, PBLUC_HILL_SLOPE 0.698, PBLUC_R_SQUARED 0.911, read-out: LUCIFERASE INFECTION ASSAY - IC50) was found to be 0.218 µM.

The values are drawn from ChEMBL document CHEMBL4483862, “Open-source discovery of chemical leads for next-generation chemoprotective antimalarials” (2018).
